Measurements from patent US20220002279A1, “NOVEL IMIDAZOLE DERIVATIVE” (priority 2018, published 2022).
≈ marks a conversion by molar mass, not a printed value.

What was measured:
Test in all cases: Antimicrobial activity, MIC by broth microdilution
Assay type in all cases: cell-based
[1] = test system: Escherichia coli strain ATCC25922; conditions: ATCC25922, 18 h, cation-adjusted Mueller-Hinton broth, about 5×10^5 CFU/mL, 35° C., about 18 hours, read-out: MIC Escherichia coli ATCC25922
From the text: (§1) Test Example 4 Evaluation of the Antimicrobial Activity
(§2) For minimum inhibitory concentration (MIC) measurement, the following broth microdilution method was applied as adapted from the standard procedure recommended by the CLSI (Clinical and Laboratory Standards Institute).
(§3) The bacteria used were Pseudomonas aeruginosa strain ATCC27853, Escherichia coli strain ATCC25922, and Klebsiella pneumoniae strain ATCC13883. After culture overnight on a heart infusion agar medium, the cells of a test bacterium were scraped off, and a bacterial solution suspended to have a turbidity of level 0.5 on the McFarland scale was diluted and used as an inoculum solution. The inoculum solution was inoculated in a cation-adjusted Mueller-Hinton broth medium containing a test compound so that the final inoculation concentration was about 5×10^5 CFU/mL, and cultured at 35° C. for about 18 hours. A minimum drug concentration at which no cell growth was visible to the naked eye was designated as MIC. […] In the table, ND represents the case where suppression of the cell growth in a drug concentration-dependent manner was not observed (Not Determined), and NT represents that no test was conducted (Not Tested).

[2] = test system: Klebsiella pneumoniae strain ATCC13883; conditions: ATCC13883, cation-adjusted Mueller-Hinton broth, about 5×10^5 CFU/mL, 35° C., about 18 hours, read-out: MIC Klebsiella pneumoniae ATCC13883
From the text: as §1, §2, §3

[3] = test system: Pseudomonas aeruginosa strain ATCC27853; conditions: ATCC27853, 18 h, cation-adjusted Mueller-Hinton broth, about 5×10^5 CFU/mL, 35° C., about 18 hours, read-out: MIC Pseudomonas aeruginosa ATCC27853
From the text: as §1, §2, §3

MIC [1] [µg/mL] | MIC [2] [µg/mL] | MIC [3] [µg/mL] | SMILES
4 (≈ 9.23 µM) | 8 (≈ 18.5 µM) | 16 (≈ 36.9 µM) | CC(=O)N[C@H]1C[C@H](C#Cc2ccc(-c3cc([C@@H](CN)n4ccnc4[C@H](C)O)no3)cc2)C1 [Compound 115, N-{trans-3-[(4-{3-[(1R)-2-amino-1-{2-[(1S)-1-hydroxyethyl]-1H-imidazol-1-yl}ethyl]-1,2-oxazol-5-yl}phenyl)ethynyl]cyclobutyl} acetamide]
1 (≈ 2.32 µM) | 2 (≈ 4.64 µM) | 8 (≈ 18.5 µM) | C[C@H](O)c1nccn1[C@H](CN)c1cc(-c2ccc(C#C[C@@H]3[C@H]4CN(C=O)C[C@@H]34)cc2)on1 [Compound 117, (1R,5S,6s)-6-[(4-{3-[(1R)-2-amino-1-{2-[(1S)-1-hydroxyethyl]-1H-imidazol-1-yl}ethyl]-1,2-oxazol-5-yl}phenyl)ethynyl]-3-azabicyclo[3.1.0]hexane-3-carbaldehyde]
0.25 (≈ 0.542 µM) | 0.5 (≈ 1.08 µM) | 4 (≈ 8.67 µM) | COC(=O)N1C[C@@H]2[C@@H](C#Cc3ccc(-c4cc([C@@H](CN)n5ccnc5[C@H](C)O)no4)cc3)[C@@H]2C1 [Compound 118, methyl (1R,5S,6s)-6-[(4-{3-[(1R)-2-amino-1-{2-[(1S)-1-hydroxyethyl]-1H-imidazol-1-yl}ethyl]-1,2-oxazol-5-yl}phenyl)ethynyl]-3-azabicyclo[3.1.0]hexane-3-carboxylate]
1 (≈ 2.17 µM) | 2 (≈ 4.33 µM) | 2 (≈ 4.33 µM) | CC(O)CN1C[C@@H]2[C@@H](C#Cc3ccc(-c4cc([C@@H](CN)n5ccnc5[C@H](C)O)no4)cc3)[C@@H]2C1 (stereo partly drawn) [Compound 120, 1-{(1R,5S,6s)-6-[(4-{3-[(1R)-2-amino-1-{2-[(1S)-1-hydroxyethyl]-1H-imidazol-1-yl}ethyl]-1,2-oxazol-5-yl}phenyl)ethynyl]-3-azabicyclo[3.1.0]hexan-3-yl}propan-2-ol]
4 (≈ 9.23 µM) | 2 (≈ 4.61 µM) | 32 (≈ 73.8 µM) | C[C@H](O)c1nccn1[C@H](CN)c1cc(-c2ccc(C#C[C@H]3C[C@H](N(C)C=O)C3)cc2)on1 [Compound 123, N-{trans-3-[(4-{3-[(1R)-2-amino-1-{2-[(1S)-1-hydroxyethyl]-1H-imidazol-1-yl}ethyl]-1,2-oxazol-5-yl}phenyl)ethynyl]cyclobutyl}-N-methylformamide]
2 (≈ 4.21 µM) | 4 (≈ 8.43 µM) | 2 (≈ 4.21 µM) | C[C@H](O)c1nccn1[C@H](CN)c1cc(-c2ccc(C#C[C@@H]3[C@H]4CN(C(=O)C(N)=O)C[C@@H]34)cc2)on1 [Compound 124, 2-{(1R,5S,6s)-6-[(4-{3-[(1R)-2-amino-1-{2-[(1S)-1-hydroxyethyl]-1H-imidazol-1-yl}ethyl]-1,2-oxazol-5-yl}phenyl)ethynyl]-3-azabicyclo[3.1.0]hexan-3-yl}-2-oxoacetamide]
2 (≈ 5.1 µM) | 2 (≈ 5.1 µM) | 8 (≈ 20.4 µM) | C[C@H](O)c1nccn1[C@H](CN)c1cc(-c2ccc(C#C[C@H]3C[C@@H](O)C3)cc2)on1 [Compound 125, cis-3-[(4-{3-[(1R)-2-amino-1-{2-[(1S)-1-hydroxyethyl]-1H-imidazol-1-yl}ethyl]-1,2-oxazol-5-yl}phenyl)ethynyl]cyclobutan-1-ol]
16 (≈ 39.4 µM) | 64 (≈ 157 µM) | 16 (≈ 39.4 µM) | C[C@H](O)c1nccn1[C@H](CN)c1cc(-c2ccc(C#C[C@H]3CC3C(=O)O)cc2)on1 (stereo partly drawn) [Compound 126, trans-2-[(4-{3-[(1R)-2-amino-1-{2-[(1S)-1-hydroxyethyl]-1H-imidazol-1-yl}ethyl]-1,2-oxazol-5-yl}phenyl)ethynyl]cyclopropane-1-carboxylate]
1 (≈ 2.32 µM) | 2 (≈ 4.63 µM) | 8 (≈ 18.5 µM) | C[C@H](O)c1nccn1[C@H](CN)c1cc(-c2ccc(C#CC3CC(NC4CC4)C3)cc2)on1 (stereo partly drawn) [Compound 129, (1S)-1-(1-{(1R)-2-amino-1-[5-(4-{[3-(cyclopropylamino)cyclobutyl]ethynyl}phenyl)-1,2-oxazol-3-yl]ethyl}-1H-imidazol-2-yl)ethan-1-ol]
8 (≈ 18.9 µM) | 32 (≈ 75.7 µM) | 16 (≈ 37.9 µM) | C[C@H](O)c1nccn1[C@H](CN)c1cc(-c2ccc(C#CC3CC3(CO)CO)cc2)on1 (stereo partly drawn) [Compound 131, (1S)-1-(1-{(1R)-2-amino-1-[5-(4-{[2,2-bis(hydroxymethyl)cyclopropyl]ethynyl}phenyl)-1,2-oxazol-3-yl]ethyl}-1H-imidazol-2-yl)ethan-1-ol]
8 (≈ 17.3 µM) | 8 (≈ 17.3 µM) | 2 (≈ 4.33 µM) | C[C@H](O)c1nccn1[C@H](CN)c1cc(-c2ccc(C#C[C@@H]3[C@H]4CN(CCCO)C[C@@H]34)cc2)on1 [Compound 132, 3-{(1R,5S,6s)-6-[(4-{3-[(1R)-2-amino-1-{2-[(1S)-1-hydroxyethyl]-1H-imidazol-1-yl}ethyl]-1,2-oxazol-5-yl}phenyl)ethynyl]-3-azabicyclo[3.1.0]hexan-3-yl) propan-1-ol]
1 (≈ 2.23 µM) | 4 (≈ 8.94 µM) | 8 (≈ 17.9 µM) | C[C@H](O)c1nccn1[C@H](CN)c1cc(-c2ccc(C#C[C@H]3C[C@H](NC4COC4)C3)cc2)on1 [Compound 133, (1S)-1-{1-[(1R)-2-amino-1-{5-[4-({trans-3-[(oxetan-3-yl)amino]cyclobutyl}ethynyl)phenyl]-1,2-oxazol-3-yl}ethyl]-1H-imidazol-2-yl} ethan-1-ol]
0.5 (≈ 1.19 µM) | 2 (≈ 4.78 µM) | 32 (≈ 76.5 µM) | C[C@H](O)c1nccn1Cc1cc(-c2ccc(C#C[C@H]3C[C@H](NC4COC4)C3)cc2)on1 [Compound 135, (S)-1-(1-((5-(4-(((1r,3S)-3-(oxetan-3-ylamino)cyclobutyl)ethynyl)phenyl)isoxazol-3-yl)methyl)-1H-imidazol-2-yl)ethanol]
1 (≈ 2.17 µM) | 4 (≈ 8.67 µM) | 2 (≈ 4.33 µM) | C[C@H](O)CN1C[C@@H]2[C@@H](C#Cc3ccc(-c4cc([C@@H](CN)n5ccnc5[C@H](C)O)no4)cc3)[C@@H]2C1 [Compound 136, (S)-1-((1R,5S,6R)-6-((4-(3-((R)-2-amino-1-(2-((S)-1-hydroxyethyl)-1H-imidazol-1-yl)ethyl)isoxazol-5-yl)phenyl)ethynyl)-3-azabicyclo[3.1.0]hexan-3-yl)propan-2-ol]
